Laboratory results from US20240287046A1, “COMPOUNDS AND RADIOLIGANDS FOR TARGETING NEUROTENSIN RECEPTOR AND USES THEREOF” (Full-Life Technologies HK Limited, priority 2022, published 2024).

System: ASPC-1 tumor-bearing mice
Assay: Biodistribution of radionuclide labeled complexes in ASPC-1 tumor-bearing mice
Format: in vivo, BALB/c nude mice
Conditions: for ratio of tumor AUC verse normal organ AUC: compared to ^177Lu—C2
Description: The BALB/c nude mice (Charles River, Beijing) were utilized to establish the xenografted model for biodistribution study. All animal care and experimental procedure were performed by following the animal protocols approved by the ethics committee of China Institute of Radiation Protection.
Briefly, each mouse was inoculated with approximately 4×10^6 ASPC-1 cells (human pancreatic cancer cell line) or HT-29 cells (human colorectal adenocarcinoma cell line) expressing human NTSR-1 by subcutaneous injection at rear flank. After inoculation, the xenografted tumors were allowed to grow for ˜2-4 weeks till the tumor weight reached to about 0.05 to 0.50 g (0.20 g in average).
Biodistribution studies were performed by administrating the radionuclide labeled test compound at a dose of ˜30-50 μCi (100 μL in 0.9% NaCl, ˜1.11-1.85 MBq, with specific activity 30-250 μCi/nmol) to each animal through tail vein injection.
At different time points after the administration, the mice treated with each compound were euthanized. The tissues and organs of the animals in each group were collected, excised, weighed, and analyzed in a PerkinElmer 2480 WIZARD2γ counter, and the percent injected dose (% ID) and % ID/g of each organ or tissue were calculated.

| % ID/g (4 h) Blood [% ID/g] | % ID/g (24 h) Blood [% ID/g] | % ID/g (4 h) Femur [% ID/g] | % ID/g (24 h) Femur [% ID/g] | % ID/g (4 h) Heart [% ID/g] | % ID/g (24 h) Heart [% ID/g] | % ID/g (4 h) Intestine [% ID/g] | % ID/g (24 h) Intestine [% ID/g] | % ID/g (4 h) Kidney [% ID/g] | % ID/g (24 h) Kidney [% ID/g] | % ID/g (4 h) Liver [% ID/g] | % ID/g (24 h) Liver [% ID/g] | % ID/g (4 h) Lung [% ID/g] | % ID/g (24 h) Lung [% ID/g] | % ID/g (4 h) Muscle [% ID/g] | % ID/g (24 h) Muscle [% ID/g] | % ID/g (4 h) Pancreas [% ID/g] | % ID/g (24 h) Pancreas [% ID/g] | % ID/g (24 h) Spleen [% ID/g] | % ID/g (4 h) Stomach [% ID/g] | SMILES | further results |
| --- | --- | --- | --- | --- | --- | --- | --- | --- | --- | --- | --- | --- | --- | --- | --- | --- | --- | --- | --- | --- | --- |
| 2.08 ± 0.14 | 0.06 ± 0.02 | 0.72 ± 0.05 | 0.19 ± 0.09 | 0.68 ± 0.5 | 0.24 ± 0.1 | 0.98 ± 0.2 | 0.37 ± 0.07 | 3.66 ± 2.51 | 3.16 ± 1.81 | 1.81 ± 0.43 | 0.97 ± 0.45 | 0.64 ± 0.1 | 0.31 ± 10.1 | 0.47 ± 0.25 | 0.13 ± 0.05 | 0.41 ± 0.28 | 0.18 ± 0.09 | 0.53 ± 0.25 | 0.57 ± 0.16 | COc1cccc(OC)c1-c1cc(C(=O)NC2(C(=O)O)C3CC4CC(C3)CC2C4)nn1-c1ccc(N(C)CCCN(C)CCCN(C)C(=O)CN2CCN(CC(=O)[O-])CCN(CC(=O)[O-])CCN(CC(=O)[O-])CC2)cc1C(C)C.[177Lu+3] (stereo not shown) [^177Lu-I-1] | tumor AUC over 72 hours compared to ^177Lu—C2: significantly higher tumor AUC; % ID/g (72 h) Blood: 0.04 ± 0.01 % ID/g; % ID/g (72 h) Femur: 0.15 ± 0.06 % ID/g; % ID/g (72 h) Heart: 0.18 ± 0.03 % ID/g; % ID/g (72 h) Intestine: 0.51 ± 0.1 % ID/g; % ID/g (72 h) Kidney: 1.3 ± 0.61 % ID/g; % ID/g (72 h) Liver: 1.06 ± 0.46 % ID/g; % ID/g (72 h) Lung: 0.33 ± 0.28 % ID/g; % ID/g (72 h) Muscle: 0.06 ± 0.01 % ID/g; % ID/g (72 h) Pancreas: 0.07 ± 0.04 % ID/g; % ID/g (4 h) Spleen: 0.42 ± 0.16 % ID/g; % ID/g (72 h) Spleen: 0.24 ± 0.08 % ID/g; % ID/g (24 h) Stomach: 0.28 ± 0.17 % ID/g; % ID/g (72 h) Stomach: 0.1 ± 0.02 % ID/g; % ID/g (4 h) Tumor: 6.93 ± 0.71 % ID/g; % ID/g (24 h) Tumor: 22.56 ± 1.81 % ID/g; % ID/g (72 h) Tumor: 7.23 ± 4.46 % ID/g; ratio of tumor AUC verse normal organ AUC: significantly improved |
| 9.23 ± 0.36 | 0.28 ± 0.03 | 1.4 ± 0.79 | 0.39 ± 0.1 | 3.78 ± 0.03 | 0.4 ± 0.13 | 2.00 ± 0.18 | 1.00 ± 0.18 | 2.03 ± 0.38 | 2.39 ± 0.77 | 5.15 ± 1.65 | 1.66 ± 0.55 | 1.77 ± 0.37 | 0.39 ± 0.11 | 1.48 ± 1.16 | 0.23 ± 0.14 | 0.54 ± 0.14 | 0.32 ± 0.15 | 1.07 ± 0.31 | 0.86 ± 0.1 | COc1cccc(OC)c1-c1cc(C(=O)NC2(C(=O)O)C3CC4CC(C3)CC2C4)nn1-c1ccc(NCCCN(C)CCCNC(=O)CN2CCN(CC(=O)[O-])CCN(CC(=O)[O-])CCN(CC(=O)[O-])CC2)cc1C(C)C.[177Lu+3] (stereo not shown) [^177Lu-I-2] | tumor AUC over 72 hours compared to ^177Lu—C2: significantly higher tumor AUC; % ID/g (72 h) Blood: 0.07 ± 0.01 % ID/g; % ID/g (72 h) Femur: 0.111 ± 0.09 % ID/g; % ID/g (72 h) Heart: 0.18 ± 0.1 % ID/g; % ID/g (72 h) Intestine: 0.55 ± 0.11 % ID/g; % ID/g (72 h) Kidney: 1.69 ± 1.04 % ID/g; % ID/g (72 h) Liver: 1.02 ± 0.44 % ID/g; % ID/g (72 h) Lung: 0.17 ± 0.02 % ID/g; % ID/g (72 h) Muscle: 0.05 ± 0.03 % ID/g; % ID/g (72 h) Pancreas: 0.08 ± 0.02 % ID/g; % ID/g (72 h) Spleen: 0.19 ± 0.03 % ID/g; % ID/g (24 h) Stomach: 0.43 ± 0.27 % ID/g; % ID/g (72 h) Stomach: 0.22 ± 0.1 % ID/g; % ID/g (4 h) Tumor: 23.11 ± 18.15 % ID/g; % ID/g (24 h) Tumor: 25.61 ± 1.69 % ID/g; % ID/g (72 h) Tumor: 15.44 ± 5.61 % ID/g; ratio of tumor AUC verse normal organ AUC: significantly improved |
| 6.25 ± 1.53 | 0.23 ± 0.12 | 0.89 ± 0.74 | 0.4 ± 0.16 | 2.39 ± 0.51 | 0.5 ± 0.12 | 3.51 ± 1.14 | 1.00 ± 0.34 | 3.09 ± 1.79 | 1.47 ± 1.07 | 7.4 ± 2.9 | 1.86 ± 0.97 | 2.92 ± 2.09 | 0.55 ± 0.34 | 0.54 ± 0.28 | 0.34 ± 0.14 | 0.53 ± 0.09 | 0.6 ± 0.2 | 1.22 ± 0.22 | 1.74 ± 1.36 | COc1cccc(OC)c1-c1cc(C(=O)NC2(C(=O)O)C3CC4CC(C3)CC2C4)nn1-c1ccc(SCCCN(C)CCCN(C)C(=O)CN2CCN(CC(=O)[O-])CCN(CC(=O)[O-])CCN(CC(=O)[O-])CC2)cc1C(C)C.[177Lu+3] (stereo not shown) [^177Lu-I-8] | % ID/g (4 h) Spleen: 0.71 ± 0.16 % ID/g; % ID/g (24 h) Stomach: 0.69 ± 0.46 % ID/g; % ID/g (4 h) Tumor: 16.7 ± 10.49 % ID/g; % ID/g (24 h) Tumor: 26.12 ± 10.63 % ID/g |
| 0.93 ± 0.29 | 0.04 ± 0.00 | 0.23 ± 0.06 | 0.04 ± 0.02 | 0.41 ± 0.13 | 0.04 ± 0.02 | 1.86 ± 0.58 | 0.14 ± 0.01 | 3.02 ± 0.39 | 0.31 ± 0.11 | 0.96 ± 0.4 | 0.14 ± 0.01 | 0.74 ± 0.72 | 0.4 ± 0.26 | 0.13 ± 0.12 | 0.01 ± 0.01 | 0.07 ± 0.01 | 0.04 ± 0.02 | 0.12 ± 0.05 | 1.88 ± 0.59 | COc1cccc(OC)c1-c1cc(C(=O)NC2(C(=O)O)C3CC4CC(C3)CC2C4)nn1-c1ccc(NCCOCCOCCNC(=O)CN2CCN(CC(=O)[O-])CCN(CC(=O)[O-])CCN(CC(=O)[O-])CC2)cc1C(C)C.[177Lu+3] (stereo not shown) [^177Lu-I-10] | % ID/g (72 h) Blood: 0.01 ± 0.00 % ID/g; % ID/g (72 h) Femur: 0.02 ± 0 % ID/g; % ID/g (72 h) Heart: 0.01 ± 0.01 % ID/g; % ID/g (72 h) Intestine: 0.04 ± 0.01 % ID/g; % ID/g (72 h) Kidney: 0.04 ± 0.01 % ID/g; % ID/g (72 h) Liver: 0.06 ± 0.02 % ID/g; % ID/g (72 h) Lung: 0.05 ± 0.03 % ID/g; % ID/g (72 h) Muscle: 0.011 ± 0.01 % ID/g; % ID/g (72 h) Pancreas: 0.01 ± 0 % ID/g; % ID/g (4 h) Spleen: 0.3 ± 0.14 % ID/g; % ID/g (72 h) Spleen: 0.02 ± 0.01 % ID/g; % ID/g (24 h) Stomach: 0.1 ± 0.07 % ID/g; % ID/g (72 h) Stomach: 0.04 ± 0.01 % ID/g; % ID/g (4 h) Tumor: 17.97 ± 11.04 % ID/g; % ID/g (24 h) Tumor: 12.27 ± 7.59 % ID/g; % ID/g (72 h) Tumor: 4.24 ± 2.71 % ID/g; ratio of tumor AUC verse normal organ AUC: significantly improved |
